Earlier results in patent publication US7541371B2, “Method for treating a motor neuron disease” (Eisai R&D Management Co., Ltd., priority 2006, dated 2009).

Molecular target: T1, serotonin 1A receptor (Rattus norvegicus, UniProt P19327)
T1 construct: mixed with the receptor fraction of the hippocampus; from tissue; host or cells: rat hippocampus
T1 sequence (P19327 1-422): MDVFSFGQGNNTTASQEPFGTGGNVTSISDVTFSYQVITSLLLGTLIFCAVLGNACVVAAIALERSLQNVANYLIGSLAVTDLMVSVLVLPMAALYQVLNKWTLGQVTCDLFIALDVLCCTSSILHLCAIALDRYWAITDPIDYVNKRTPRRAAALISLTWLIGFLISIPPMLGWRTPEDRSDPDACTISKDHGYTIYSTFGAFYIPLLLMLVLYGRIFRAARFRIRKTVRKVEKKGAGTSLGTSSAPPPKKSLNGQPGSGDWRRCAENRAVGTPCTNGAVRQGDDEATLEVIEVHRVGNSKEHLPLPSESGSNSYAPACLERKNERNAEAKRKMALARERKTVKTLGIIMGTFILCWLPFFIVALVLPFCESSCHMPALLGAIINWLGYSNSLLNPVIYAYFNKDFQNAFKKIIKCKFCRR
Details: rat hippocampus receptor fraction, 0.5 nM [3H]8-hydroxy-dipropylaminotetralin; compounds 7 and 8, WO 99/18077; read-out: 5HT1a; cited from earlier work

For CCN1CCN(c2nc(-c3ccc(OCC(C)(C)O)cc3)cc3sccc23)CC1 [Compound 8, 1-{4-[4-(4-ethylpiperazin-1-yl)thieno[3,2-c]pyridin-6-yl]phenoxy}-2-methylpropan-2-ol], the Ki is listed as 54.9 nM.
